Data: patent US12692274B2, “Tetrahydroisoquinoline derivatives for the treatment of red blood disorders and inflammatory diseases” (Sanofi, priority 2020, dated 2026)
“And” between values parts separate entries of the source, which are not always exact repeats. Identical values can stand only once.

What was measured:
[1] = biological target: HIS-Keap1 full length / Biotin-Nrf2 (16-mer) (Homo sapiens, UniProt Q14145); test: biochemical
[2] = system: NQO1 activation in BEAS-2B cells; test: BEAS-2B cellular MTT assay of NQO1 activation, 0% HSA; assay type: cell-based
Experimental: (§1) The growth rate of the BEAS-2B cells changed based on the lot of BEGM SingleQuots in the BEGM media. The cell growth rate was determined for each lot of SingleQuots. Ideally, cells were thawed into media with the new lot of SingleQuots and grown for two passages before testing; however, growing an active culture in the new lot of media for two to three passages before testing was also acceptable. Until the cell growth rate was determined, cells were seeded at different densities (cells/cm^2) in multiple tissue culture flasks in order to avoid the cells becoming more than 70% confluent. Cells should not go above 70% confluent as the cells differentiate when they become confluent. After the cells were grown in the new lot of media as described above, the number of cells per well needed to seed in the collagen plates was determined by seeding different numbers of cells per well and incubating for 48 hours. Cell confluency was checked after 48 hours and a cell number that results in just below to just above confluency was chosen for future plate seeding. Cell confluency in the assay plate was 95-100% confluent after 48 hours.
(§2) Cell media consists of BEBM basal media with the BEGM SingleQuots added. SingleQuots vials were thawed in the tissue culture hood, and GA-1000 (Gentamicin-Amphotericin) was not added.
(§3) If complete media was to be used immediately, BEBM basal media was warmed to room temperature in the hood, but not as high as 37° C. When the media was made for future use, SingleQuots were added to cold BEBM. One at a time, the SingleQuots components (except GA-1000) were added to the BEBM media. After removal of each component from the vial, the vial was rinsed with 0.5-1 mL of BEBM (depending on the volume the vial could hold) and added to the bottle of BEBM. Once all components were added, the label that comes with the SingleQuots kit was put on the bottle of media and the date was recorded. The bottle of media was mixed by gentle shaking. The media was not filtered. This media was stored at 4° C., with any leftover media disposed of one month after the date the SingleQuots were added.
(§4) BEAS-2B Cell Splitting Protocol:
(§5) First, Trypsin was warmed to 37° C. in the water bath. The media was then warmed to room temperature by letting it sit in the tissue culture hood, but not as high as 37° C. The media was aspirated from flask(s) and the flask(s) were washed with PBS. From 1 to 1.5 mL of warm trypsin were added to each flask and incubated at 37° C. until cells came off the flask on their own (~8-10 minutes), with no vigorous tapping on the flask to detach the cells.
(§6) Media was added to each flask to a total volume of 8-10 mL per flask and transferred to 15 mL conical tube(s). The cells were spun down at 120 g for 5 minutes, level 5 brake. The cells can be spun down between 100 and 150 g. Next the media was aspirated and the cell pellet was resuspended in fresh media by pipetting up and down and flicking the tube side to side. Any clumps of cells that remained were allowed to settle to the bottom of the tube before the top suspension was transferred into another tube, leaving about 1 mL of media in the original tube. The 1 mL of media and cell clumps were mixed with a single channel p1000 pipette, and any remaining clumps were removed before adding the cells in suspension to the other tube. The suspension was mixed with a pipette, an aliquot was removed, and the cells were counted. The amount of cells/cm^2 desired was calculated and the required volume of cells was added to tissue culture flasks. For example, use of SingleQuots with ~6000 cells/cm^2 was appropriate for a three day incubation and ~3000 cells/cm^2 for a five day incubation. Optimal cell density differed depending on lot of SingleQuots. The flasks were incubated at 37° C. in 5% CO2.
(§7) Day One: Seeding BEAS-2B Cells in Collagen Plates:
(§8) Plate(s) were either seeded with 0.3% or 0% HSA. While the protocol was similar for both conditions any differences are noted herein below. […]

[3] = system: NQO1 activation in BEAS-2B cells; test: BEAS-2B cellular MTT assay of NQO1 activation, 0.3% HSA; assay type: cell-based
Experimental: as §1, §2, §3, §4, §5, §6, §7, §8

[4] = Homo sapiens, serum free, read-out: BEAS EC50 (nM) serum free
[5] = serum free, read-out: BEAS EC50 (nM) serum free
[6] = Homo sapiens, BEAS+, read-out: BEAS+ EC50
[7] = Homo sapiens, Serum Free W, read-out: BEAS EC50 (nM) Serum Free W
[8] = Serum Free W, read-out: BEAS EC50 (nM) Serum Free W
[9] = BEAS+ W, read-out: BEAS+ W EC50
[10] = Homo sapiens, BEAS+ W, read-out: BEAS+ W EC50

HIS-Keap1 full length / Biotin-Nrf2 (16-mer), sequence (Q14145 whole entry): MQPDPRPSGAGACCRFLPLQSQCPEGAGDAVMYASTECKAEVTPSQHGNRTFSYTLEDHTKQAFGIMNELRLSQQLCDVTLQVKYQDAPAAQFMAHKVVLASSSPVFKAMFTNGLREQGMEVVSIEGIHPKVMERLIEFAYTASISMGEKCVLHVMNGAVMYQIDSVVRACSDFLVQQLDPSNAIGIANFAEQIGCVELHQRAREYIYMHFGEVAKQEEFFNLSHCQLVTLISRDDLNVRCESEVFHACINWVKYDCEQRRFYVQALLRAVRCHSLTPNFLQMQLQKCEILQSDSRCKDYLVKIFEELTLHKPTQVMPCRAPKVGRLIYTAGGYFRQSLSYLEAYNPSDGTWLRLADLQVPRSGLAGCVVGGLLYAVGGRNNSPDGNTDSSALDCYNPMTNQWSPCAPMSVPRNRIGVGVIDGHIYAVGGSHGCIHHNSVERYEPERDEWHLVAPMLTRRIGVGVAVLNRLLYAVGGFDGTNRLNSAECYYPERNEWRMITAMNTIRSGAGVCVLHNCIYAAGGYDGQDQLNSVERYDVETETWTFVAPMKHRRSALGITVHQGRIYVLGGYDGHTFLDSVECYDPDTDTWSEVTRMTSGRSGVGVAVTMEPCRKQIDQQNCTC

Compound: Cc1c2ccc3c1nnn3CCCCCCc1ccc3c(c1)cc(n3CCC(F)(F)F)C(=O)N1CCc3ccc(cc3C1)[C@@H]2CC(=O)O [Compound 31]
- IC50 [1]: 2.1 nM and 1.2 nM

Compound: O=C(O)CC1c2ccc3c(c2)CN(CC3)S(=O)(=O)c2ccc(cc2)OCCCCCCn2nnc3cc1ccc32 (centres unmarked) [Compound 404]
- IC50 [1]: 662 nM and 271 nM

Compound: Cc1c2ccc3c1nnn3CCCCCCc1ccc3c(c1)cc(n3C)C(=O)N1CCc3ccc(cc3C1)[C@H]2[C@H](C)C(=O)O [Compound 30]
- IC50 [1]: 103 nM and 159 nM

Compound: Cc1ccc2cc1OCCCCCn1nnc3cc(ccc31)C(CC(=O)O)c1ccc3c(c1)CN(CC3)C2=O (centres unmarked) [Compound 430]
- IC50 [1]: 67.5 nM and 56.1 nM

Compound: O=C(O)CC1c2ccc3c(c2)CN(CC3)C(=O)c2ccc(cc2)OC/C=C/CCn2nnc3cc1ccc32 (centres unmarked) [Compound 424]
- IC50 [1]: 4.8 nM and 4.7 nM and 2.2 nM and 0.5 nM

Compound: Cc1c2cccc1C(=O)N1CCc3ccc(cc3C1)C(CC(=O)O)c1ccc3c(nnn3CCCCCO2)c1C (centres unmarked) [Compound 408]
- IC50 [1]: 1.6 nM and 1.5 nM and 13.2 nM and 5 nM

Compound: Cc1c2cccc1C(=O)N1CCc3ccc(cc3C1)C(CC(=O)O)c1ccc3c(c1)nnn3CCCCCO2 (centres unmarked) [Compound 420]
- IC50 [1]: 8.5 nM and 8.3 nM

Compound: Cc1cc2ccc1C(=O)N1CCc3ccc(cc3C1)[C@@H](C(C)(C)C(=O)O)c1ccc3c(c1)nnn3CCCCCCO2 [Compound 237]
- IC50 [1]: 22.9 nM and 36.1 nM and 70.2 nM and 28.2 nM and 29.9 nM

Compound: Cc1c2ccc3c1nnn3CCCCCCc1ccc(c3ccn(C)c13)C(=O)N1CCc3ccc(cc3C1)[C@@H]2CC(=O)O [Compound 32]
- IC50 [1]: 0.5 nM and 0.6 nM

Compound: Cc1c2ccc3c1nnn3CCCCCCOc1ccc(c(F)c1)C(=O)N1CCc3ccc(cc3C1)[C@H]2CC(=O)O [Compound 255]
- EC50 [2, 4]: 4.8 nM
- EC50 [2, 5]: 4 nM
- EC50 ([3]; BEAS+, read-out: BEAS+ EC50): 289 nM
- EC50 [3, 6]: 288 nM

Compound: Cc1c2ccc3c1nnn3CCCCCCOc1ccc(c(F)c1)C(=O)N1CCc3ccc(cc3C1)[C@@H]2CC(=O)O [Compound 257]
- EC50 [2, 4]: 7.4 nM
- EC50 [2, 5]: 4.3 nM
- EC50 ([3]; BEAS+, read-out: BEAS+ EC50): 146 nM
- EC50 [3, 6]: 228 nM

Compound: O=C(O)CC1c2ccc(nc2)OCC/C=C\COc2cccc(c2)C(=O)N2CCc3ccc1cc3C2 (centres unmarked) [Compound 345]
- IC50 [1]: 2900 nM and 3360 nM

Compound: Cc1c2ccc3c1nnn3CCCCCc1ccc(cc1)C(=O)N1CCc3ccc(cc3C1)[C@@H]2[C@H](C)C(=O)O [Compound 116]
- EC50 [2, 7]: 130 nM
- EC50 [2, 8]: 84.8 nM
- EC50 [3, 9]: 252 nM
- EC50 [3, 10]: 212 nM

Compound: O=C(O)CC1c2ccc3c(c2)CN(CC3)C(=O)c2ccc(cc2)OCCCCCn2nnc3cc1ccc32 (centres unmarked) [Compound 334]
- EC50 [2, 4]: 547 nM
- EC50 [3, 6]: 898 nM

Compound: COc1cc2ccc1C(=O)N1CCc3ccc(cc3C1)C(CC(=O)O)c1ccc3c(nnn3CCCCCC2)c1C (centres unmarked) [Compound 188]
- EC50 [2, 4]: 9.4 nM
- EC50 [2, 5]: 9.1 nM
- EC50 ([3]; BEAS+, read-out: BEAS+ EC50): 14.9 nM
- EC50 [3, 6]: 15.3 nM

Compound: Cc1c2ccc3c1nnn3CCCCCCc1ccc(cc1)C(=O)N1CCc3ccc(cc3C1)[C@@H]2[C@@H](C)C(=O)O (racemic) [Compound 201]
- EC50 [2, 5]: 0.3 nM and 0.1 nM
- EC50 ([3]; BEAS+, read-out: BEAS+ EC50): 0.5 nM and 0.2 nM

Compound: Cc1c2ccc3c1nnn3CCCCCCOc1ccc(c(F)c1)C(=O)N1CCc3ccc(cc3C1)[C@@H]2[C@H](C)C(=O)O [Compound 177]
- EC50 [2, 4]: 43.7 nM
- EC50 [2, 5]: 36.1 nM
- EC50 ([3]; BEAS+, read-out: BEAS+ EC50): 140 nM
- EC50 [3, 6]: 107 nM

Compound: Cc1c2ccc3c1nnn3CCCCCc1ccc(cc1)C(=O)N1CCc3ccc(cc3C1)[C@@H]2[C@H](C)C(=O)O [Compound 160]
- EC50 [2, 4]: 9.4 nM
- EC50 [2, 5]: 7 nM
- EC50 ([3]; BEAS+, read-out: BEAS+ EC50): 13.2 nM
- EC50 [3, 6]: 12.4 nM

Compound: C[C@@H](C(=O)O)[C@H]1c2ccc(nc2)OCCCCCc2ccc(cc2)C(=O)N2CCc3ccc1cc3C2 [Compound 57]
- EC50 [2, 8]: 0.3 nM
- EC50 [3, 9]: 0.6 nM

Compound: Cc1c2ccc3c1nnn3CCCCCCOc1ccc(c(F)c1)C(=O)N1CCc3ccc(cc3C1)[C@H]2[C@@H](C)C(=O)O [Compound 152]
- EC50 [2, 4]: > 10000 nM
- EC50 [3, 6]: > 10000 nM

Compound: Cc1cc2ncc1[C@@H]([C@@H](C)C(=O)O)c1ccc3c(c1)CN(CC3)C(=O)c1ccc(cc1)CCCCCO2 [Compound 82]
- EC50 [2, 7]: 594 nM
- EC50 [2, 8]: 641 nM
- EC50 [3, 9]: 1760 nM
- EC50 [3, 10]: 1960 nM

Compound: COc1cc2ncc1[C@@H](CC(=O)O)c1ccc3c(c1)CN(CC3)C(=O)c1ccc(cc1)CCCCCO2 [Compound 73]
- EC50 [2, 7]: 287 nM
- EC50 [2, 8]: 373 nM
- EC50 [3, 9]: 590 nM
- EC50 [3, 10]: 464 nM
